From US10696651B2, “Heterocyclic compound” (Takeda Pharmaceutical Company Limited, priority 2016, dated 2020)
Where a name gives a salt, the structure may show the parent alone. Read-outs that look alike come from different tables or passages of the source.

Tests used:
[1] = molecular target: T1, human GCN2 full-length protein (Homo sapiens, UniProt Q9P2K8); assay: GCN2 enzyme inhibition assay (LanthaScreen TR-FRET); type: biochemical; details: GCN2 enzyme inhibitory activity at compound concentration of 3 μM; for inhibition at 3 µM: read-out: inhibitory rate
T1 construct: purchased Carna Biosciences, Inc
Procedure, shortened: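 Full-length human GCN2 was preincubated with compound for 1 hr at room temperature, then reacted for 1 hr with substrate and ATP added from a 570 μM ATP / 390 nM substrate solution (stock concentrations). Phosphorylation was detected by TR-FRET with a terbium-labelled anti-eIF2alpha antibody after 1 hr, with enzyme-free wells as control.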

[2] = system: osteosarcoma cell line U-2-OS; assay: In vitro cell proliferation inhibition assay (CellTiter-Glo, low amino acid media); type: cell-based; details: McCoy's 5A low amino acid media; for inhibitory rate: 72 hr; for inhibition at 0.1 µM: Homo sapiens, U2OS, 72 h, cell proliferation inhibitory rate
Description: A cell suspension (40 μL) (1000 cells/well) of osteosarcoma cell line U-2-OS obtained from ATCC (American Type Culture Collection) was seeded on a 384 plate using McCoy's 5A low amino acid media (amino acid content 25%). The seeded cells were incubated (37° C., 5% CO2) overnight to 24 hr at the longest. Each example compound was dissolved (10 mM) in DMSO, delivered to wells by using TECAN HP D300 (TECAN), and the plate was incubated for 72 hr (37° C., 5% CO2). A well without addition of compound was treated similarly as a control group. Celltiter-Glo (registered trade mark) Luminescent Cell Viability Assay reagent (Promega KK) equilibrated at room temperature was added (40 μL/well) to cells in each well before compound treatment (untreated group) and 72 hours after compound treatment. After incubation for 10 min, cell proliferation inhibitory rate was measured by the amount of ATP which is a cell viability marker. Luminescence of cells showing ATP amount was measured using ARVO MX (PerkinElmer). Based on the luminescence values of the untreatment group, the control group without addition of Example compound solution, and the treatment group with addition of Example compound, the cell proliferation inhibitory rate (%) of the test compound at a compound concentration of 100 nM was calculated by the following formula and the results thereof are shown in Tables 4-1, 4-2. Inhibitory rate (%)=(1−(luminescence value of treatment group−luminescence value of untreatment group)÷(luminescence value of control group−luminescence value of untreatment group))×100

[3] = system: ATF4 expression in CCRF-CEM tumor; assay: In vivo ATF4 expression suppression assay (Western blot of CCRF-CEM xenograft tumor) in the presence of L-asparaginase; details: compound 10 mg/kg oral 8 hr before tumor removal, L-asparaginase 1000 U/kg s.c. 32 hr and 8 hr before, CCRF-CEM xenograft in SCID mouse
From the text: One million human acute lymphoblastic leukemia cell lines CCRF-CEM obtained from ATCC (American Type Culture Collection) were suspended in Matrigel solution (Corning) and implanted subcutaneously into 6-week-old female SCID mouse (CLEA Japan, Inc.) by injection. The mice in which the tumor engrafted to a size of about 200-1000 mm^3 tumor volume after transplantation were selected and 3 mice per group were used for the experiment. L-asparaginase (Kyowa Hakko Kogyo Co., Ltd.) was subcutaneously administered at a dose of 1000 U/kg 32 hr and 8 hr before tumor removal. A 0.5% methylcellulose suspension of the compound was orally administered at a dose of 10 mg/kg 8 hr before tumor removal. After tumor removal, protein was extracted using Lysing Matrix I tube (MP Biomedicals) containing a protein extract (10% glycerol, 1% sodium dodecyl sulfate, 62.5 mM Tris-HCl [pH 7.5], protease and phosphatase inhibitors [Complete mini and PhosSTOP, Sigma-Aldrich Co. LLC.]) and subjected to Western blot.
Protein extract solution was subjected to protein quantification with BCA Protein Assay Kit (Thermo Scientific), electrophoresed on 7.5-15% SDS-PAGE gel (DRC), and protein in the gel was transferred to PVDF membrane. The membrane was blocked with Starting Block T20 (PBS) Blocking Buffer (Thermo Scientific). […] Thereafter, chemiluminescence was performed using ImmunoStar LD (Wako Pure Chemical Industries, Ltd.), and luminescence intensity was measured by LAS-3000 image analyzer (Fuji Film Co., Ltd.). Furthermore, the expression level of ATF4 was digitized by quantifying the luminescence intensity using Multi Gauge Ver. […]
Based on the ATF4 expression level of the control group orally administered with 0.5% methylcellulose suspension free of Example compound and the treatment group orally administered with Example compound suspension, the ATF4 expression inhibition ratio (%) of the test compound at a compound dose 10 mg/kg was calculated by the following formula and the results thereof are shown in Table 6. […]

[4] = system: human acute lymphoblastic leukemia cells CCRF-CEM; assay: In vivo tumor proliferation inhibitory assay with combined use of asparaginase (CCRF-CEM xenograft); details: CCRF-CEM xenograft in SCID mouse
From the text: One million human acute lymphoblastic leukemia cells CCRF-CEM obtained from ATCC (American Type Culture Collection) were suspended in Matrigel solution (Corning) and implanted subcutaneously into 6-week-old female SCID mouse (CLEA Japan, Inc.) by injection. The mice in which the tumor engrafted to a size of about 200 mm^3 tumor volume after transplantation were selected and 5 mice per group were used for the experiment. A 0.5% methylcellulose suspension of the compound was orally administered twice per day for 9 days. Each compound was administered twice per day and the dose was 10 mg/kg for Example 14 and Example 7, and 6 mg/kg for Example 4. L-asparaginase (Kyowa Hakko Kogyo Co., Ltd.) was subcutaneously administered once per day at a dose of 1000 U/kg. Tumor diameter was measured one day before start of the administration and day 9 of the administration, and the tumor volume was calculated by the formula 1. tumor volume=major axis×minor axis×minor axis×(½) Formula 1
Tumor proliferation inhibitory rate (%) was calculated by the formula 2. tumor proliferation inhibitory rate (%)=(1−(T9−T0)/(C9−C0))×100 Formula 2 T9: average tumor volume of test drug administration group on day 9 of administration, T0: average tumor volume of test drug administration group one day before start of administration, C9: average tumor volume of control group on day 9 of administration, C0: average tumor volume of control group one day before start of administration

T1 sequence (Q9P2K8 whole entry): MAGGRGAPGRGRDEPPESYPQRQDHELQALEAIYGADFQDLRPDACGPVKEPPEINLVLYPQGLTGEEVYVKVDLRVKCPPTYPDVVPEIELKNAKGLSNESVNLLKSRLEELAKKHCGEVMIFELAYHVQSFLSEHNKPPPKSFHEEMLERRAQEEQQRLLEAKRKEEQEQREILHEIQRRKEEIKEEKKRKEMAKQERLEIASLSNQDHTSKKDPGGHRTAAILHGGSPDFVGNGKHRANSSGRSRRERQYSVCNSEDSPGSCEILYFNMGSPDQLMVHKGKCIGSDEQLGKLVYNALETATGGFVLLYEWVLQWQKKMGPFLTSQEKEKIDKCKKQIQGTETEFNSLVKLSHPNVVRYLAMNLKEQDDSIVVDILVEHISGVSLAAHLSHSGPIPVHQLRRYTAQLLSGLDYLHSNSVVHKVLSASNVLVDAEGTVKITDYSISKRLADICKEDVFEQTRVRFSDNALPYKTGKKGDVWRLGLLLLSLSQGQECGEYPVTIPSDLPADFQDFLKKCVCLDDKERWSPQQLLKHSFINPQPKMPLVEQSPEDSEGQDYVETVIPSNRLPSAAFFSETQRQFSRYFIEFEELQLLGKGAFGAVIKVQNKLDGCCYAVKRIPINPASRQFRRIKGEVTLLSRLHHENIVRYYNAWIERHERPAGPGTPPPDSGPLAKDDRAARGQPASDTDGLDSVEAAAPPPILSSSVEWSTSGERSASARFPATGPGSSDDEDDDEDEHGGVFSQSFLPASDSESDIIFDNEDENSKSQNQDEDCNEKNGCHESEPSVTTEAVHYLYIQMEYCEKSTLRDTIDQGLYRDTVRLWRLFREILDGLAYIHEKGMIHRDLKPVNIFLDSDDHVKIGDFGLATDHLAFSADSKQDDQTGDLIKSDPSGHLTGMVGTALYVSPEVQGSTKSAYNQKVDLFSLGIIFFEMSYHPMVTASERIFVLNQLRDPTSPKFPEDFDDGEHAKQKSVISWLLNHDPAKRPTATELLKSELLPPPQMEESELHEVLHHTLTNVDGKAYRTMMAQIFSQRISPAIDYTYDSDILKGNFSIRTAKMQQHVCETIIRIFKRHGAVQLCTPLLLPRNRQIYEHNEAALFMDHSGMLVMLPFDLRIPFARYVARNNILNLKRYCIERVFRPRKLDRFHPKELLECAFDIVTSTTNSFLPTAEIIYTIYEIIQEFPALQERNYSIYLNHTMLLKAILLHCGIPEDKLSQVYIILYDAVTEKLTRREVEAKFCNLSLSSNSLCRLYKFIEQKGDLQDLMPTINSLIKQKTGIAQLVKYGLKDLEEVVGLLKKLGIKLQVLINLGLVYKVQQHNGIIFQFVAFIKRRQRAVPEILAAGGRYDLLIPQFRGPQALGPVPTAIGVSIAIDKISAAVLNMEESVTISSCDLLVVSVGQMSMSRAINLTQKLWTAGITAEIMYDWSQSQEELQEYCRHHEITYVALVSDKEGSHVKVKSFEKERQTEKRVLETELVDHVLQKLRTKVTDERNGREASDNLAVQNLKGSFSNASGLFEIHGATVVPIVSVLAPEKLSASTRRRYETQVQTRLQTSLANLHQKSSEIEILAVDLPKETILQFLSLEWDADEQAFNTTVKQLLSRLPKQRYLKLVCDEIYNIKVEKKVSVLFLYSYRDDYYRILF

| SMILES | inhibition at 3 µM ([1]; Table 3-2) | inhibition at 0.1 µM ([2]; Table 4-2) | inhibition at 3 µM ([1]; Table 3-1) | inhibition at 0.1 µM ([2]; Table 4-1) | further results |
| --- | --- | --- | --- | --- | --- |
| O=S(=O)(Nc1ccc(F)c(C#Cc2cnc3[nH]ncc3c2)c1F)c1cc(Cl)ccc1Cl [Example 14, 2,5-dichloro-N-(2,4-difluoro-3-(1H-pyrazolo[3,4-b]pyridin-5-ylethynyl)phenyl)benzenesulfonamide] |  |  |  |  | inhibitory rate ([1]; Table 3-1, 3 µM): 98%; inhibitory rate ([2]; Table 4-1): 42%; in vivo ATF4 expression inhibition ratio (%) [3]: 63%; in vivo tumor proliferation inhibitory rate (%), GCN2 inhibitor ([4]; GCN2 inhibitor alone, 10 mg/kg oral twice per day for 9 days): 1%; in vivo tumor proliferation inhibitory rate (%), combined use ([4]; compound 10 mg/kg oral twice per day for 9 days combined with L-asparaginase 1000 U/kg s.c. once per day): 64% |
| COc1c(CO)cc(Cl)cc1S(=O)(=O)Nc1ccc(F)c(C#Cc2cnc(NCC3CCOC3)nc2)c1F (stereo not shown) [Example 145, 5-chloro-N-(2,4-difluoro-3-((2-((tetrahydrofuran-3-ylmethyl)amino)pyrimidin-5-yl)ethynyl)phenyl)-3-(hydroxymethyl)-2-methoxybenzenesulfonamide] | 99% | 69% |  |  |  |
| Cc1ccc(Cl)cc1S(=O)(=O)Nc1ccc(F)c(C#Cc2cnc(N)nc2)c1F [Example 19, N-(3-((2-aminopyrimidin-5-yl)ethynyl)-2,4-difluorophenyl)-5-chloro-2-methylbenzenesulfonamide] |  |  | 98% | 87% |  |
| CNc1ncc(Cl)cc1S(=O)(=O)Nc1ccc(F)c(C#Cc2cnc(N[C@H](C)CO)nc2)c1F [Example 183, 5-chloro-N-(2,4-difluoro-3-((2-(((2R)-1-hydroxypropan-2-yl)amino)pyrimidin-5-yl)ethynyl)phenyl)-2-(methylamino)pyridine-3-sulfonamide] | 103% | 77% |  |  |  |
| Cc1ccc(Cl)cc1S(=O)(=O)Nc1ccc(F)c(C#Cc2cnc(N)c(C)n2)c1F [Example 31, N-(3-((5-amino-6-methylpyrazin-2-yl)ethynyl)-2,4-difluorophenyl)-5-chloro-2-methylbenzenesulfonamide] |  |  | 99% | 53% |  |
| COc1c(Cl)cc(Cl)cc1S(=O)(=O)Nc1ccc(F)c(C#Cc2cnc3[nH]ncc3c2)c1F [Example 33, 3,5-dichloro-N-(2,4-difluoro-3-(1H-pyrazolo[3,4-b]pyridin-5-ylethynyl)phenyl)-2-methoxybenzenesulfonamide] |  |  | 98% | 40% |  |
| O=S(=O)(Nc1ccc(F)c(C#Cc2cnc(N[C@H]3CC[C@H](O)CC3)nn2)c1F)c1cc(Cl)cc(CO)c1Cl [Example 177, 2,5-dichloro-N-(2,4-difluoro-3-((3-((trans-4-hydroxycyclohexyl)amino)-1,2,4-triazin-6-yl)ethynyl)phenyl)-3-(hydroxymethyl)benzenesulfonamide] | 100% | 72% |  |  |  |
| Cc1ncc(Cl)cc1S(=O)(=O)Nc1ccc(F)c(C#Cc2cnc3[nH]ncc3c2)c1F [Example 2, 5-chloro-N-(2,4-difluoro-3-(1H-pyrazolo[3,4-b]pyridin-5-ylethynyl)phenyl)-2-methylpyridine-3-sulfonamide] |  |  | 100% | 92% |  |
| COc1c(CO)cc(Cl)cc1S(=O)(=O)Nc1ccc(F)c(C#Cc2cnc(NC3CC3)nn2)c1F [Example 168, 5-chloro-N-(3-((3-(cyclopropylamino)-1,2,4-triazin-6-yl)ethynyl)-2,4-difluorophenyl)-3-(hydroxymethyl)-2-methoxybenzenesulfonamide] | 99% | 57% |  |  |  |
| COc1c(CO)cc(Cl)cc1S(=O)(=O)Nc1ccc(F)c(C#Cc2cnc(N)nc2)c1F [Example 129, N-(3-((2-aminopyrimidin-5-yl)ethynyl)-2,4-difluorophenyl)-5-chloro-3-(hydroxymethyl)-2-methoxybenzenesulfonamide] | 99% | 70% |  |  |  |
| C[C@H](CO)Nc1ncc(C#Cc2c(F)ccc(NS(=O)(=O)c3cc(Cl)cc(CO)c3Cl)c2F)nn1 [Example 178, 2,5-dichloro-N-(2,4-difluoro-3-((3-(((2R)-1-hydroxypropan-2-yl)amino)-1,2,4-triazin-6-yl)ethynyl)phenyl)-3-(hydroxymethyl)benzenesulfonamide] | 100% | 74% |  |  |  |
| C[C@H](CO)Nc1ncc(C#Cc2c(F)ccc(NS(=O)(=O)c3cc(Cl)cc(CO)c3Cl)c2F)cn1 [Example 180, 2,5-dichloro-N-(2,4-difluoro-3-((2-(((2R)-1-hydroxypropan-2-yl)amino)pyrimidin-5-yl)ethynyl)phenyl)-3-(hydroxymethyl)benzenesulfonamide] | 103% | 76% |  |  |  |
| O=S(=O)(Nc1ccc(F)c(C#Cc2cnc3[nH]ncc3c2)c1F)c1cc(Cl)ccc1Cl [Example 10, 2,5-dichloro-N-(2,4-difluoro-3-(1H-pyrazolo[3,4-b]pyridin-5-ylethynyl)phenyl)benzenesulfonamide TFA Salt] |  |  | 99% |  | inhibitory rate ([2]; Table 4-1, TFA Salt): 63% |
| COc1ncc(Cl)cc1S(=O)(=O)Nc1ccc(F)c(C#Cc2cnc3[nH]ncc3c2)c1F [Example 5, 5-chloro-N-(2,4-difluoro-3-(1H-pyrazolo[3,4-b]pyridin-5-ylethynyl)phenyl)-2-methoxypyridine-3-sulfonamide] |  |  | 99% | 91% |  |
